# Laboratory results as given in patent publication US20260294874A1, “COMPOSITIONS COMPRISING MODULATORS OF RIBONUCLEOPROTEIN GRANULE FORMATION AND DISSOLUTION AND METHODS OF USE THEREOF” (University of Virginia Patent Foundation, priority 2023, published 2026).
# “Also recorded” adds a separate entry of the source.
# How the values were obtained:
# EDC3 Y475 = target: T1, EDC3 Y475 (Homo sapiens, UniProt Q96F86); test: Competitive ABPP SILAC LC-MS/MS chemical proteomics, EDC3 Y475; assay type: cell-based; conditions: glucose-deprived HEK293T cells, 25 μM, 2 h
# T1 sequence (Q96F86 1-508): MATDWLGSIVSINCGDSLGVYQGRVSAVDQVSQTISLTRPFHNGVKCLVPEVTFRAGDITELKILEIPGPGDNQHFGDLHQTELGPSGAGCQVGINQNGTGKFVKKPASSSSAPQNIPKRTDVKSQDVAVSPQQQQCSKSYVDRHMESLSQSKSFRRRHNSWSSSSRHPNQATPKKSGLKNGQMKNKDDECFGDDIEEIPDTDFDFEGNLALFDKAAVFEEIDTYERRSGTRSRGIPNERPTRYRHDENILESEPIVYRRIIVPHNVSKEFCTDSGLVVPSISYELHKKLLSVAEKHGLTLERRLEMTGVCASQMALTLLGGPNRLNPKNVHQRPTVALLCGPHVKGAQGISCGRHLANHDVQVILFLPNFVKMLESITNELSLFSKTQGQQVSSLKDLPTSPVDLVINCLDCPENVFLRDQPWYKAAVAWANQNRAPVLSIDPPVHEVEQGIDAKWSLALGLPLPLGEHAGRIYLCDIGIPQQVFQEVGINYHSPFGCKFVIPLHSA
# Experimental: Preparation of SILAC proteomes for LC-MS/MS analysis. SILAC cell proteomes were fractionated to collect the supernatant and normalized to 2.3 mg/mL in PBS. ‘Heavy’ and ‘light’ proteomes were aliquoted (427 μL) and probe-modified proteins were conjugated to desthiobiotin-PEG-3-azide using copper-catalyze azide-alkyne cycloaddition, trypsinized into peptides using Trypsin/Lys-C Mix (Catalog No. V5071; Promega Corporation, Madison, Wisconsin, United States of America), enriched using PIERCE™ Avidin Agarose brand beads (Catalog No. 20219; Thermo Fisher Scientific Inc., Waltham, Massachusetts. United States of America), and prepared for nano-electrospray ionization-LC-MS/MS analysis as previously described in Hahm et al., 2020.
# Data Analysis—Chemical Proteomics. Identification and analysis of peptides and proteins using LC-MS was accomplished using bioinformatics software and quality control parameter protocols as previously described in Hahm et al., 2020.
# We performed quantitative liquid-chromatography tandem mass spectrometry (LC-MS/MS) chemical proteomic studies to identify the target protein and binding site(s) of SuTEx fragments with RNP granule modulating activity. […] SILAC light and heavy cells (HEK293T and HeLa) were treated with experimental conditions used for phenotypic screening including the SuTEx ligand pretreatment (25 μM, 2 h) followed by PB (glucose-deprivation, 15 min) and SG induction (75 μM [COMPOUND LEFT OUT], 30 min). Afterwards, cells were lysed, soluble proteomes treated with HHS-465 SuTEx probe (100 μM, 1 h), a global Tyr/Lys-reactive probe used previously for RNP granule investigations (Ciancone et al., 2022), and samples processed to probe-modified peptides for LC-MS/MS analysis as previously reported (Huang et al., 2021), shown in FIG. 10.
# We detected ~8,700 probe-modified sites (Tyr and Lys) in our aggregate HeLa and HEK293T chemical proteomic analyses. […]
# [1] = system: G3BP1 Y40E-rescued G3BP KO cells; test: SG formation in G3BP KO U20S cells rescued with G3BP1 Y40E; assay type: cell-based; conditions: 25 μM, 2 h
# Experimental: G3BP KO and rescue studies. U20S G3BP1/2 double knockout (G3BP KO) cell-line was a kind gift from the C. Brangwynne lab (Princeton University, Princeton, New Jersey, United States of America) and generated as previously described in Kedersha et al., 2016. G3BP KO cells were seeded at 9.0×10^4 in a 24-well plate with 12-mm glass coverslips. Next day, the cells were transfected with […] vectors with 1 μg/mL tetracycline and LIPOFECTAMINE™ 3000 brand transfection reagent according to the manufacturer's protocol (Thermo Fisher Scientific). 20 hours post-transfection, the cells were treated with 25 μM SuTEx probes for 2 hours in DMEM medium without FBS. The cells were then treated with 75 μM NaAsO2 for 30 minutes and fixed with 3% paraformaldehyde in PBS for 15 minutes at RT and washed with PBS twice. The same protocols for IF of HeLa cells and quantification of G3BP1-positive SGs described above were followed thereafter.
# To determine whether the cell biological effects mediated by HHS-166 were Y40-dependent, we expressed recombinant G3BP1 WT or Y40 mutant in previously established G3BP1/2 double knockout U20S (G3BP KO) cells (Kedersha et al., 2016; Sanders et al., 2020) and evaluated the resulting effects on SG response to [COMPOUND LEFT OUT]. […]
"SILAC ratio (SR), EDC3 Y475 (EDC3 Y475; HHS-465 100 μM, DMSO (light)/ligand (heavy))",Compound,liganding of EDC3 Y475 (in words) (EDC3 Y475),effect on SG formation (in words) [1]
> 2,"COc1ccc(S(=O)(=O)n2cc(CS(C)(=O)=O)nn2)cc1 [AHL-030, 1-((4-Methoxyphenyl)sulfonyl)-4-((methylsulfonyl)methyl)-1H-1,2,3-triazole]",localized AHL-030 site of binding to Y475; also recorded: liganded site (Y475),–
–,"COc1ccc(S(=O)(=O)n2cc(C3CCCCC3)nn2)cc1 [HHS-166, 4-Cyclohexyl-1-((4-methoxyphenyl)sulfonyl)-111-1,2,3-triazole]",–,insensitive to HHS-166 treatment and lost and not Y40E-
